Data published in patent US7993687B2, “Compositions and methods for management of diabetes” (priority 2006, dated 2011).

Columns and labels:
plasma glucose = details: normal rats; synthetic D-CI intragastrically 2 hours before intraperitoneal glucose load (4 g/kg); cited from earlier work
Raf (Ser259) = assay: Western blot of Raf phosphorylation in H4IIE cells; assay type: cell-based, rat; details: for Raf (Ser259) phosphorylation, stimulation (fold) relative to the control: 6 min, one experiment
Protocol: (§1) Tissue culture media, antibiotics, fetal bovine serum (FBS) and Nunc tissue culture plates were purchased from Invitrogen Canada Inc. (Burlington, Ontario, Canada, L7P 1A1). Insulin (Sigma-Aldrich Canada Ltd., Oakville, Ontario, Canada, L6H 6J8) was dissolved in water and added directly to cells at a concentration of 250 nM unless otherwise indicated. The BWE was prepared and analyzed as described in Example 1. Two μL of the BWE were added directly to cells unless otherwise indicated. This amount was chosen on the basis of equivalence to insulin. Myo-inositol (Sigma-Aldrich Canada Ltd.) and D-chiro-inositol (Industrial Research Ltd., Wellington, New Zealand) were dissolved in water at an equal concentration to the amounts present in the BWE (Table 3) and 2 μL of each solution (0.1% v/v final concentration) was added directly to cells.
(§2) Rat H4IIE hepatoma cells (American Type Culture Collection, CRL 1548) were cultured following the method disclosed by Yau et al., (1998, Eur. J. Biochem. 253: 91-1). The H4IIE cells were maintained in α-modified Eagle's media containing 10% FBS, 2 mM glutamine, 25 μg·mL^−1 streptomycin and 25 units·mL^−1 penicillin. Cells were plated and grown to 70% confluence. All cells were placed into serum-free medium for 72 h before addition of stimulating agents to ensure entry into a quiescent state.
(§3) Cultures of quiescent H4IIE cells or quiescent FAO cells were placed into 12-well culture dishes containing 2 mL serum-free medium, and then stimulated by direct addition of the inhibitors listed in Table 1 (volumes of additions were 10 μL or less) without replacing the medium. […] The cells in 12-well culture dishes were incubated with stimulating agents for 6 minutes and rinsed with phosphate buffered saline (PBS; 0.9% NaCl, 0.1 M Na3PO4, pH 7.1).
(§4) Cellular protein extracts were prepared by addition of 200 μL 2×SDS/gel loading buffer (0.125 M Tris pH 6.8, 2% SDS, 10% glycerol) to H4IIE cells in 12-well culture dishes. The samples were briefly sonicated, and protein content measured using the BCA protein assay kit. Aliquots containing equal amounts of protein were mixed with bromophenol blue (0.5% (w/v) final concentration) and 2-mercaptoethanol (5% (v/v) final concentration), heated at 95° C. and loaded onto 7.5% or 10% polyacrylamide gels. […] Primary antibodies (diluted 1:1000 in 3% (w/v) BSA) were incubated with the membrane for 60 min at 22° C. Membranes were subsequently washed four times and incubated for an additional 60 min at 1 8-22° C. in 1% (w/v) BSA-TBST with diluted HRP-coupled secondary antibody (1:10 000). HRP was detected using the ECL chemiluminescent system after the membranes had been washed four times.
(§5) Quantification of data obtained on film (Kodak X-omat) was accomplished with a GS800 imaging densitometer (Bio-Rad Laboratories) under nonsaturating conditions with local background subtraction. Although multiple exposures were acquired to ensure the absence of film saturation, the experimental figures typically show longer exposures selected specifically for visual presentation and not necessarily used for data analysis. Graphical data are presented as means±SE for a minimum of three replicate samples.

PDK-1 (Ser241) = assay: Western blot of PDK-1 phosphorylation in H4IIE cells; assay type: cell-based, rat; details: for PDK-1 (Ser241) phosphorylation, stimulation (fold) relative to the control: 6 min, one experiment
Protocol: as §1, §2, §3, §4, §5

[1] = system: S6 ribosomal protein (Ser235/236); assay: Western blot of ribosomal protein S6 phosphorylation in H4IIE cells; assay type: cell-based, rat; details: 6 minutes
Protocol: as §1, with “Myo-inositol (Sigma-Aldrich Canada Ltd.) and D-chiro-inositol (Industrial Research Ltd., Wellington, New Zealand) were dissolved in water at an equal concentration to the amounts present in the BWE (Table 3) and 2 μL of each solution (0.1% v/v final concentration) was added directly to cells.” left out
Cellular protein extracts were prepared by addition of 200 μL 2×SDS/gel loading buffer (0.125 M Tris pH 6.8, 2% SDS, 10% glycerol) to H4IIE cells in 12-well culture dishes. The samples were briefly sonicated, and protein content measured using the BCA protein assay kit. […] HRP was detected using the ECL chemiluminescent system after the membranes had been washed four times.
Quantification of data obtained on film (Kodak X-omat) was accomplished with a GS800 imaging densitometer (Bio-Rad Laboratories) under nonsaturating conditions with local background subtraction. […]

[2] = BWE-stimulated, 15-min preincubation with the inhibitor (None = BWE alone)
[3] = insulin-stimulated, 15-min preincubation with the inhibitor (None = insulin alone)

Compound | decrease in plasma glucose (plasma glucose) | Raf (Ser259) phosphorylation, stimulation (fold) relative to the control (Raf (Ser259); [2]) [fold] | Raf (Ser259) phosphorylation, stimulation (fold) relative to the control (Raf (Ser259); [3]) [fold] | PDK-1 (Ser241) phosphorylation, stimulation (fold) relative to the control (PDK-1 (Ser241); [2]) [fold] | PDK-1 (Ser241) phosphorylation, stimulation (fold) relative to the control (PDK-1 (Ser241); [3]) [fold] | phosphorylation of ribosomal protein S6 [1] | phosphorylation (activation) of RAF (Raf (Ser259); 6 minutes) | phosphorylation (activation) of PDK (PDK-1 (Ser241); 6 minutes)
OC1C(O)C(O)C(O)C(O)C1O [D-CI, D-chiro-inositol] | 30-50% |  |  |  |  |  |  | 
COc1cccc(-c2cc(=O)c3ccccc3o2)c1N [PD98059] |  | 0.20 | 0.20 | 0.54 | 1.89 |  |  | 
insulin: Insulin (Sigma-Aldrich) dissolved in water, positive comparator |  |  | 0.53 |  | 1.57 | insulin did | not stimulated | not stimulated
